Experimental data: patent US7332482B2, “Method for treating benign prostatic hyperplasia” (BioXell S.p.A., priority 2003, dated 2008)

How the values were obtained:
rat ventral prostate = test: Ventral prostate growth in castrated, T enanthate-supplemented rats; format: in vivo; details: castrated rats + T enanthate 30 mg/Kg/week; oral, 9 administrations; Compound A 10-300 μg/Kg, finasteride 10, 40 mg/Kg
Protocol: Male Sprague Dawley rats (28 days old) were purchased from Charles River Laboratories (Calco, Lecco, Italy). All animal experimentation described was conducted in accord with accepted standards of animal care. Castration was performed via the scrotal route under ketamine/xylazine anaesthesia.

human bladder cells = test: Bladder cell growth, basal and testosterone-stimulated; format: cell-based
bladder = test: Bladder outlet obstruction (BOO) rat model, cystometry and bladder weight; format: in vivo; details: BOO rats, 150 μg/Kg daily, 2 weeks
Protocol: • Female Sprague-Dawley rats, weighing 200-250 g 1.2. Grouping • Group A: BOO rats, treated with Compound A over 2 weeks, beginning at day 1 after creation of the obstruction (n=12) • Group B: BOO rats, treated with vehicle over 2 weeks, beginning at day 1 after creation of the obstruction (n=12) • Group C: Sham operated rats, treated with Compound A over 2 weeks, beginning at day 1 after surgery (n=12) 1.3. Studies: • a) Cystometry (˜18 hours after last administration of the drug/vehicle, 12 hours after removal of the obstructing ligature) under conscious conditions. • b) Measurements of bladder weight • c) In vitro investigations 2. Methods 2.1. Bladder Outlet Obstruction (BOO):
The bladder and urethrovesical junction were exposed through a lower abdominal midline incision. A 0.9 mm metal rod was placed alongside the proximal urethra and a 3-0 silk ligature was tied tightly around the urethra and the rod, which was consequently be removed. Sham surgery was be performed accordingly, without placing the ligature. After 13 days the ligature was be removed and a catheter was be inserted into the bladder dome and tunneled subcutaneously.
The following morning after insertion of the catheter, the cystometric investigation was performed without any anesthesia or restraint in a metabolic cage. The amount of voided urine was measured by means of a fluid collector, connected to a force displacement transducer. The bladder was continuously filled with saline at room temperature. The catheter was also connected to a pressure transducer. After a stabilization period of 30-60 minutes, when reproducible voiding patterns are achieved, the following parameters were recorded over a period of 30 minutes: Basal bladder pressure, micturition pressure, threshold pressure, micturition interval and volume, and non-voiding contractions. The amount of residual urine was investigated manually 3 times, at the end of the cystometry. Bladder capacity was calculated based on the measured values.
The validated bladder outlet obstruction rat model described above was used to test the ability of Compound A to control and treat bladder dysfunction. The objective was to evaluate whether a vitamin D3 analogue (1-alpha-fluoro-25-hydroxy-16,23e-diene-26,27-bishomo-20-epi-cholecalciferol—compound “A”) at the dose of 150 μg/Kg/daily) can prevent bladder hypertrophy and bladder dysfunction such as bladder overactivity.
In this model a ligature was surgically placed around the outlet of the catheterized bladder, so that when the catheter was removed, the bladder experienced increased urethral resistance. The rats underwent continuous cystometry to evaluate bladder function. In addition the contractile properties of isolated bladder preparation in response to nerve stimulation and exogenous stimuli in vitro were investigated under electrical field stimulation (EFS).
The following cystometric parameters were investigated (see FIGS. 12-16): • micturition pressure (the maximum bladder pressure during micturition), • bladder capacity (residual volume after voiding plus the volume of saline infused to induce the void) • micturition volume (volume of the expelled urine) • residual urine (bladder capacity minus micturition volume) and • frequency and amplitude of spontaneously occurring changes intravesical pressure (non-voiding contractions).

AR [1] = target: T1, AR (Homo sapiens, UniProt P10275); test: [3H]R1881 binding assay on cytosol fractions of BPH fragments; set-up: from tissue; host or cells: human BPH prostatic tissue, cytosol fraction
T1 sequence (P10275 1-920): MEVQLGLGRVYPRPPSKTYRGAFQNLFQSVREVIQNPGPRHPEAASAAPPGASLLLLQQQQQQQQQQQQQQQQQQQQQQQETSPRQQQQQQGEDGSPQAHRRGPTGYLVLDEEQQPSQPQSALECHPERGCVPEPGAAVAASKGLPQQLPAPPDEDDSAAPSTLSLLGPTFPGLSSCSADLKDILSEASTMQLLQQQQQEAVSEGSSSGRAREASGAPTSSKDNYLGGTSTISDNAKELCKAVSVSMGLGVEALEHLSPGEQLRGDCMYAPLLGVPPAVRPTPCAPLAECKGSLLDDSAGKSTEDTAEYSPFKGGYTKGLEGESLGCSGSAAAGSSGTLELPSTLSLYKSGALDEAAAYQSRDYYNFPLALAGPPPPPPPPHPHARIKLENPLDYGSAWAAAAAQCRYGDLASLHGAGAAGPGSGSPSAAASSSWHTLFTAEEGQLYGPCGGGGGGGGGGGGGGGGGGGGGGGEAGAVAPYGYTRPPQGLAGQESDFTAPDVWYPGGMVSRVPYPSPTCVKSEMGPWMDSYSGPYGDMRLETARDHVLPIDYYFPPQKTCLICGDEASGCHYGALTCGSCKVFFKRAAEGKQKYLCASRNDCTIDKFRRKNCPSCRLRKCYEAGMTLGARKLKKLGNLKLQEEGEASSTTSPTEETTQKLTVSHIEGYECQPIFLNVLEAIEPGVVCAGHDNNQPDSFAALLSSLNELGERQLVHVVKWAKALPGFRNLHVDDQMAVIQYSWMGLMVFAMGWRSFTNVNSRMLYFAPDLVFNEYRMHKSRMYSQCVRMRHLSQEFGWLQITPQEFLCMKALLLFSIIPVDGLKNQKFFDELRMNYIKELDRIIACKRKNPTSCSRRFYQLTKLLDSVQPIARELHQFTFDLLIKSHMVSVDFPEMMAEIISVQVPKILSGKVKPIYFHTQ
Protocol: Prostatic tissues for binding assay were obtained from patients who underwent suprapubic adenomectomy for BPH. No pharmacological treatment was performed in the 3 months preceding surgery. After surgery, the tissues were immediately placed in liquid nitrogen and stored at −80° C. until processing.
Protein content was determined by the known method of Bradford, using BSA as a standard.

AR [2] = target: T1, AR; test: Luciferase assay in AR-transfected PC3 cells; format: cell-based; set-up: In PC3 cells expressing the full length AR coupled to a luciferase report gene; expressed in transfected cells; host or cells: PC3 (AR-deficient human prostate adenocarcinoma), stably transfected with p5HbhAR-A; details: increasing concentrations, alone or with DHT 3 nM
Protocol: PC3 cells stably transfected with human AR were plated in 24-well plates at a density of 2×10^4 in Ham's F12 plus 10% FCS. […] Transfected cells incubated with ethanol only served as positive controls.
The Luciferase assay was performed with a Berthold luminometer according to the manufacturer's instructions (Luciferase Assay System, Promega, Milan, Italy). The cells were lysed directly in the plate with 200 μl of lysis buffer. Luciferase activity was measured on 20 μl of cell lysate for 10 s after addition of 100 μl of luciferine. Total protein measurement was performed on 20 μl of cell lysate. At least three independent assays were done in duplicate.

C=C1/C(=C\C=C2/CCC[C@]3(C)C([C@@H](C)C/C=C/C(O)(CC)CC)=CC[C@@H]23)C[C@@H](O)C[C@@H]1F [Compound A, 1-alpha-fluoro-25-hydroxy-16,23E-diene-26,27-bishomo-20-epi-cholecalciferol] was tested, and the “effect on T-stimulated prostate over-growth (ventral prostate weight)” value (rat ventral prostate) was “completely blunted”, the “inhibition of basal and testosterone-stimulated growth of bladder cells” value (human bladder cells) was “effective in inhibiting” and the “effect on bladder cell growth compared with finasteride” value (human bladder cells; T 10 nM, F 1 nM) was “significantly greater than that of the anti-androgen finasteride”. The bladder weight (bladder) was “slight decrease”, the micturition pressure (bladder) was “significant differences versus vehicle” and the residual urine (bladder) was “absent”. For the same compound, the “spontaneous non-voiding contraction amplitude” value (bladder) was “significant differences versus vehicle”, the “spontaneous non-voiding contraction frequency” value (bladder) was “significant differences versus vehicle” and the Kd (AR [1]) was greater than 100 µM. For the same compound, the “competition for [3H]-R1881 binding” value (AR [1]; human BPH homogenates, 10^−10-10^−4 M) was “did not compete” and the “effect on AR-mediated luciferase activity (agonist/antagonist)” value (AR [2]) was “neither stimulated nor inhibited”.
